{"source": "patent US8603550B1", "about": "“Compositions for topical treatment” (priority 2013, dated 2013)", "key": {"[1]": {"system": "Staphylococcus aureus ATCC 6538 (MSSA)", "assay": "Zone of inhibition test (agar well)", "assay_type": "cell-based", "conditions": "S. aureus ATCC 6538; 7 mm well, about 0.2 ml product, 37° C., 24 hours", "experimental": "(§1) An overnight culture of the test organism is diluted to 0.40 OD at 600 nm and then further diluted 10^−2 to obtain approximately 3×10^6 CFU/ml for the inoculation of TSA or SDA plates as follows: a 0.5 ml volume is spread across the surface of a sterile agar plate and allowed to dry. A 7 mm well is made in the center of the agar plate and approximately 0.2 ml of product is pipetted into the well. Additionally, Finipil is tested against S. aureus. The plates are incubated at 37° C. for 24 hours and the zones of inhibition are determined by measuring the diameter of the clear circular area around the product filled well.\n(§2) *Becton Dickinson BBL Cefoxitin 30 microgram Sensi-Disk® sensitivity disks will be used to indicate susceptibility to Methicillin"}, "[2]": {"system": "Staphylococcus aureus ATCC 33592 (MRSA)", "assay": "Zone of inhibition test (agar well)", "assay_type": "cell-based", "conditions": "S. aureus ATCC 33592 (methicillin resistant); 7 mm well, 37° C., 24 hours", "experimental": "as §1, §2"}}, "data": [{"compound": "CO[C@@]1(NC(=O)Cc2cccs2)C(=O)N2C(C(=O)O)=C(COC(N)=O)CS[C@@H]21", "note": "[Cefoxitin disk, Cefoxitin]", "values": [{"measurement": "Zone of inhibition (diameter)", "setting": "[1]", "result": 33, "unit": "mm"}, {"measurement": "Zone of inhibition (diameter)", "setting": "[2]", "result": 10, "unit": "mm"}]}]}
